Test results taken from patent US20060083748A1, “Calixarenes for use as excipient for an active substance” (priority 2002, published 2006).
Where two headings read alike, the source gives them in different places.

Experiments:
[1] = Membrane permeation, traditional artificial membrane without hydrophilic pores (Standard); conditions: artificial membrane without hydrophilic pores (transcellular path); 125 or 250 μM, Tris-buffer pH 7.4, 16 hours
Excerpt: (§1) The combination of these two test systems allows the study of the permeability of a plurality of active ingredients independently of the type of transport which they prefer.

[2] = Membrane permeation, PAMPORE system (hydrophilic pores in the lipid layer); conditions: hydrophilic pores in the lipid layer (paracellular path); 125 or 250 μM, Tris-buffer pH 7.4, 16 hours
Excerpt: as §1

[3] = system: Herpes simplex 1, herpes simplex 2, varicella zoster; conditions: cited from earlier work
herpes simplex = conditions: cited from earlier work
CMV = conditions: in achievable concentrations; cited from earlier work
[4] = cited from earlier work
Epstein-Barr = conditions: cited from earlier work
[5] = AIDS, chemotherapy; i.v. administration; cited from earlier work
Varizella zoster = conditions: cited from earlier work

5,11,17,23-tetrasulphonic acid calix[4]arenes
Membrane permeation (%) Standard [1]: <15%
Membrane permeation (%) PAMPORE [2]: 100%

Nc1nc2c(ncn2COCCO)c(=O)[nH]1 [aciclovir]
Activity (order of activity against viruses) [3]: Herpes simplex 1>herpes simplex 2>varicella zoster
Effect in recurring mucocutaneous herpes infections (herpes simplex; chron. suppressive therapy): reduces rate of attack
Effect in mucocutaneous herpes simplex infections (herpes simplex; mucocutaneous herpes simplex infections): overall moderate benefit
Activity against CMV (CMV): not active
t/2 ([4]; anuria (renal insufficiency)): 18 h
t/2 ([4]; normal renal function): 3 h
Activity against Epstein-Barr (Epstein-Barr): only in vitro
Effect in immune suppressed patients [5]: prevents dissemination, faster healing
Effect on post-herpetic neuralgia (Varizella zoster; in vivo): no clear effect
Effect on healing in varizella zoster infections (Varizella zoster; symptoms, lesions, pain): faster healing

Hexasulphonic acid calix[6]arenes
Membrane permeation (%) Standard [1]: 0%
Membrane permeation (%) PAMPORE [2]: 100%

Tetramethyltetramethyl resorcin[4]arenes
Membrane permeation (%) Standard [1]: <15%
Membrane permeation (%) PAMPORE [2]: 95%
